US6949682B2, “Cinnamaldehyde derivatives inhibiting growth of tumor cell and regulating cell cycle, preparations and pharmaceutical compositions thereof” (Korea Research Institute of Bioscience and Biotechnology, priority 2003, dated 2005)

Legend:
HCT116 colon cancer cell [1] = assay: Growth inhibition of HCT116 colon cancer cell (GI50); format: cell-based, human; details: concentration at which growth of HCT116 colon cancer cell was inhibited to the 50%
Procedure: (§1) Colon cancer cell of human SW620(ATCC) or HCT116 (ATCC) was transferred to T25 flask(culture 7.5 ml) by RPMI1640 (Gibco/BR) medium or DMEM medium (Gibco/BR) containing 10% FBS (fetal bovine serum), respectively. Thereafter the cell was incubated for 12 hours at 37° C. in incubator. After the cell was incubated for 12 hours, 7.5 μl of DMSO was added to a culture used as control group, for the final concentration to be 0.1%. In order to use in experiment, samples of various concentrations were prepared by dissolving the cinnamaldehyde derivatives of the present invention in DMSO. 7.5 μl of the prepared samples was added to a culture used as experimental group. Cell of control or experimental group was incubated for 48 hours.
(§2) HCT116 GI50 (μM) and SW620 GI50 (μM) mean to be the concentrations at which growth of HCT116 and SW620 colon cancer cell was inhibited to the 50%, respectively.

SW620 colon cancer cell [2] = assay: Growth inhibition of SW620 colon cancer cell (GI50); format: cell-based, human; details: concentration at which growth of SW620 colon cancer cell was inhibited to the 50%
Procedure: as §1, §2

SW620 colon cancer cell [3] = assay: Cell cycle analysis (Experimental Example 1), SW620; format: cell-based, human; details: SW620, 1 μM, 48 hours, percentage of cells in G2/M
Procedure: as §1
(§3) For cell cycle analysis, incubated cell was removed from medium. Thereafter the incubated cell was separated from the flask by trypsin. Thus the cell was centrifuged at 300 g for 5 min. The cell was washed with phosphate buffer solution (PBS) to remove the residue medium from the cell. 3 ml of ethanol (70%) was added to the cell. The cell was fixed by being positioned at −20° C. for 12 hours. The fixed cell was centrifuged at 300 g for 3 min and washed with the cold PBS for two times to remove residual ethanol. The cell solution prepared by adding 500 μl of PBS to the cell was well mixed to produce the homogeneous state. 100 μg/ml RNase A 50 μl was added to the cell solution, thereafter the resulting cell solution was positioned at 37° C. for 30 min. The chromosomal DNA was stained by further adding 1 mg/ml propidium iodide (soluble in PBS) thereto.
(§4) Distribution of cell cycle of 20,000 stained cells were measured by using Becton-Dickinson FACS caliber (San Jose, Calif., USA).

HCT116 colon cancer cell [4] = assay: Cell cycle analysis (Experimental Example 1), HCT116; format: cell-based, human; details: HCT116, 1 μM, 48 hours, percentage of cells in G2/M
Procedure: as §1, §3, §4

Structure (SMILES)	GI50 (HCT116 colon cancer cell [1]; Homo sapiens, HCT-116) [µM]	GI50 (SW620 colon cancer cell [2]; Homo sapiens, SW-620) [µM]	G2/M at 1 μM(%) SW620 (SW620 colon cancer cell [3]) [%]	G2/M at 1 μM(%) HCT116 (HCT116 colon cancer cell [4]) [%]	melting point [°C]	GI50 (HCT116 colon cancer cell [1]) [µM]	GI50 (SW620 colon cancer cell [2]) [µM]
O=CC(=C\c1ccccc1)/C(C=O)=C/c1ccccc1 [Compound 1, 2,3-bis-benzylidenesuccinaldehyde]	8.39	1.52	45	42	150 to 151	–	–
O=CC(=Cc1ccccc1F)C(C=O)=Cc1ccccc1F [Compound 2, 2,3-bis-(2-fluorobenzylidene)succinaldehyde]	4.02	10.7	58	48	141 to 142	–	–
O=CC(=Cc1ccccc1Cl)C(C=O)=Cc1ccccc1Cl [Compound 3, 2,3-bis-(2-chlorobenzylidene)succinaldehyde]	0.91	0.91	47	40	177 to 178	–	–
O=CC(=Cc1ccccc1Br)C(C=O)=Cc1ccccc1Br [Compound 4, 2,3-bis-(2-bromobenzylidene)succinaldehyde]	1.05	2.14	36	38	194 to 195	–	–
COc1ccccc1C=C(C=O)C(C=O)=Cc1ccccc1OC [Compound 5, 2,3-bis-(2-methoxybenzylidene)succinaldehyde]	3.72	1.55	50	55	163 to 164	–	–
O=CC(=Cc1cccc(Cl)c1)C(C=O)=Cc1cccc(Cl)c1 [Compound 6, 2,3-bis-(3-chlorobenzylidene)succinaldehyde]	3.62	90.6	66	60	107 to 108	–	–
COc1cc(C=C(C=O)C(C=O)=Cc2ccc(O)c(OC)c2)ccc1O [Compound 7, 2,3-bis-(4-hydroxy-3-methoxy-benzylidene)succinaldehyde]	7.87	3.53	38	30	177 to 178	–	–
COc1ccc(C=C(C=O)C(C=O)=Cc2ccc(OC)c(OC)c2)cc1OC [Compound 8, 2,3-bis-(3,4-dimethoxybenzylidene)succinaldehyde]	5.49	10.5	75	71	149 to 150	–	–
O=CC(=Cc1ccc(Cl)cc1)C(C=O)=Cc1ccc(Cl)cc1 [Compound 9, 2,3-bis-(4-chlorobenzylidene)succinaldehyde]	3.62	24.2	67	63	172 to 173	–	–
O=CC(=Cc1ccc(O)cc1)C(C=O)=Cc1ccc(O)cc1 [Compound 10, 2,3-bis-(4-hydroxy-benzylidene)succinaldehyde]	1.36	1.02	65	61	244 to 246	–	–
Cc1ccc(C=C(C=O)C(C=O)=Cc2ccc(C)cc2)cc1 [Compound 11, 2,3-bis-(4-methyl-benzylidene)succinaldehyde]	1.03	5.17	44	40	177 to 178	–	–
COc1ccc(C=C(C=O)C(C=O)=Cc2ccc(OC)cc2)cc1 [Compound 12, 2,3-bis-(4-methoxy-benzylidene)succinaldehyde]	9.62	10.2	57	59	204 to 207	–	–
CCCOc1ccccc1/C=C(C=O)/C(C=O)=C/c1ccccc1OCCC [Compound 13, 2,3-bis(2-propyloxy-benzylidene)succinaldehyde]	5.28	2.11	62	65	109 to 110	–	–
C=CCOc1ccccc1C=C(C=O)C(C=O)=Cc1ccccc1OCC=C [Compound 14, 2,3-bis-(2-allyloxy-benzylidene)succinaldehyde]	5.28	2.64	76	72	117 to 118	–	–
CC(C)Oc1ccccc1C=C(C=O)C(C=O)=Cc1ccccc1OC(C)C [Compound 15, 2,3-bis-(2-isopropyloxy-benzylidene)succinaldehyde]	5.34	5.34	69	70	109 to 110	–	–
O=CC(=Cc1ccccc1OCc1ccc(Cl)cc1)C(C=O)=Cc1ccccc1OCc1ccc(Cl)cc1 [Compound 17, 2,3-bis-(2-(4-chlorobenzyloxy)-benzylidene)succinaldehyde]	0.84	0.54	76	71	186 to 187	–	–
O=CC(=Cc1ccccc1OCc1ccc(Br)cc1)C(C=O)=Cc1ccccc1OCc1ccc(Br)cc1 [Compound 18, 2,3-bis-(2-(4-bromobenzyloxy)-benzylidene)succinaldehyde]	2.63	4.64	70	75	210 to 211	–	–
O=CC(=Cc1ccccc1OCc1ccc([N+](=O)[O-])cc1)C(C=O)=Cc1ccccc1OCc1ccc([N+](=O)[O-])cc1 [Compound 19, 2,3-bis-(2-(4-nitrobenzyloxy)-benzylidene)succinaldehyde]	5.19	7.09	39	32	116 to 117	–	–
CCCOc1cccc(/C=C(C=O)/C(C=O)=C/c2cccc(OCCC)c2)c1 [Compound 20, 2,3-bis-(3-propyloxy-benzylidene)succinaldehyde]	2.74	6.74	76	72	93 to 94	–	–
CCCCC(=O)Oc1ccc(C=C(C=O)C(C=O)=Cc2ccc(OC(=O)CCCC)c(OC)c2)cc1OC [Compound 26, 2,3-bis-(4-valeryloxy-3-methoxy-benzylidene)succinaldehyde]	11.2	54	47	46	–	–	–
CCCOc1ccc(/C=C(C=O)/C(C=O)=C/c2ccc(OCCC)cc2)cc1 [Compound 28, 2,3-bis-(4-propyloxybenzylidene)succinaldehyde]	0.82	0.55	70	72	–	–	–
CCCCC(=O)Oc1ccc(C=C(C=O)C(C=O)=Cc2ccc(OC(=O)CCCC)cc2)cc1 [Compound 30, 2,3-bis-(4-valeryoxy-benzylidene)succinaldehyde]	–	–	65	63	–	21	65
